From patent US20220009920A1 (GB005, Inc., priority 2020, published 2022) come the findings set out here.

Assay in all cases: Large panel kinase profiling
What all share (type): biochemical
Holding throughout (conditions): 1 μM test article, 1 mM ATP

In one assay the target is T1, BRSK2 (Homo sapiens, UniProt Q8IWQ3).
T1 sequence (Q8IWQ3 1-736): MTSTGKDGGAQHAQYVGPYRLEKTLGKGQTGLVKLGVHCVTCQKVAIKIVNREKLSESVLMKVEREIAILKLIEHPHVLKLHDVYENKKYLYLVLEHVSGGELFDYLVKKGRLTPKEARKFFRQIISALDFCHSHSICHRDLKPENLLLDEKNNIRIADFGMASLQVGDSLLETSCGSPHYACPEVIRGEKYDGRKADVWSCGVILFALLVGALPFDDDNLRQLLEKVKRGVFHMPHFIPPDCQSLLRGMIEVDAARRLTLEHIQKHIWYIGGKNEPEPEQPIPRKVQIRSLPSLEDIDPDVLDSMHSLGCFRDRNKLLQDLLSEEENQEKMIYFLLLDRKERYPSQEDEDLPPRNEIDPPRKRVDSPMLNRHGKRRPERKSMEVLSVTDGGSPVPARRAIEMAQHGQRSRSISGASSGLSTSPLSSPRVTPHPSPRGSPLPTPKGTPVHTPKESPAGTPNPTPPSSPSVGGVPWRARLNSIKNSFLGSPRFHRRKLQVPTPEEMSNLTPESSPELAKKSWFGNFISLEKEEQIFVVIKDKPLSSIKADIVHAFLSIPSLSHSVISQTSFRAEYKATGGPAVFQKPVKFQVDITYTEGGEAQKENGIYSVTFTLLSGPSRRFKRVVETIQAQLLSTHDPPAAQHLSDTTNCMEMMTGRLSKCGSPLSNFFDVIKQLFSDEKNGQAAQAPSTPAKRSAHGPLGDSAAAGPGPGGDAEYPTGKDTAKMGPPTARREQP
The procedure, abridged: (§1)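 Activity is measured in real time from the CSox sensor's fluorescence at 485 nm after 360 nm excitation, sampled every minute. Assays run at 30° C. with 1 mM ATP and a single 1 μM compound dose.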

In another assay the target is T2, CDC42BPB/MRCKB (Homo sapiens, UniProt Q9Y5S2).
T2 construct: AssayQuant Technologies, Inc. (ran the panel)
T2 sequence (Q9Y5S2 whole entry): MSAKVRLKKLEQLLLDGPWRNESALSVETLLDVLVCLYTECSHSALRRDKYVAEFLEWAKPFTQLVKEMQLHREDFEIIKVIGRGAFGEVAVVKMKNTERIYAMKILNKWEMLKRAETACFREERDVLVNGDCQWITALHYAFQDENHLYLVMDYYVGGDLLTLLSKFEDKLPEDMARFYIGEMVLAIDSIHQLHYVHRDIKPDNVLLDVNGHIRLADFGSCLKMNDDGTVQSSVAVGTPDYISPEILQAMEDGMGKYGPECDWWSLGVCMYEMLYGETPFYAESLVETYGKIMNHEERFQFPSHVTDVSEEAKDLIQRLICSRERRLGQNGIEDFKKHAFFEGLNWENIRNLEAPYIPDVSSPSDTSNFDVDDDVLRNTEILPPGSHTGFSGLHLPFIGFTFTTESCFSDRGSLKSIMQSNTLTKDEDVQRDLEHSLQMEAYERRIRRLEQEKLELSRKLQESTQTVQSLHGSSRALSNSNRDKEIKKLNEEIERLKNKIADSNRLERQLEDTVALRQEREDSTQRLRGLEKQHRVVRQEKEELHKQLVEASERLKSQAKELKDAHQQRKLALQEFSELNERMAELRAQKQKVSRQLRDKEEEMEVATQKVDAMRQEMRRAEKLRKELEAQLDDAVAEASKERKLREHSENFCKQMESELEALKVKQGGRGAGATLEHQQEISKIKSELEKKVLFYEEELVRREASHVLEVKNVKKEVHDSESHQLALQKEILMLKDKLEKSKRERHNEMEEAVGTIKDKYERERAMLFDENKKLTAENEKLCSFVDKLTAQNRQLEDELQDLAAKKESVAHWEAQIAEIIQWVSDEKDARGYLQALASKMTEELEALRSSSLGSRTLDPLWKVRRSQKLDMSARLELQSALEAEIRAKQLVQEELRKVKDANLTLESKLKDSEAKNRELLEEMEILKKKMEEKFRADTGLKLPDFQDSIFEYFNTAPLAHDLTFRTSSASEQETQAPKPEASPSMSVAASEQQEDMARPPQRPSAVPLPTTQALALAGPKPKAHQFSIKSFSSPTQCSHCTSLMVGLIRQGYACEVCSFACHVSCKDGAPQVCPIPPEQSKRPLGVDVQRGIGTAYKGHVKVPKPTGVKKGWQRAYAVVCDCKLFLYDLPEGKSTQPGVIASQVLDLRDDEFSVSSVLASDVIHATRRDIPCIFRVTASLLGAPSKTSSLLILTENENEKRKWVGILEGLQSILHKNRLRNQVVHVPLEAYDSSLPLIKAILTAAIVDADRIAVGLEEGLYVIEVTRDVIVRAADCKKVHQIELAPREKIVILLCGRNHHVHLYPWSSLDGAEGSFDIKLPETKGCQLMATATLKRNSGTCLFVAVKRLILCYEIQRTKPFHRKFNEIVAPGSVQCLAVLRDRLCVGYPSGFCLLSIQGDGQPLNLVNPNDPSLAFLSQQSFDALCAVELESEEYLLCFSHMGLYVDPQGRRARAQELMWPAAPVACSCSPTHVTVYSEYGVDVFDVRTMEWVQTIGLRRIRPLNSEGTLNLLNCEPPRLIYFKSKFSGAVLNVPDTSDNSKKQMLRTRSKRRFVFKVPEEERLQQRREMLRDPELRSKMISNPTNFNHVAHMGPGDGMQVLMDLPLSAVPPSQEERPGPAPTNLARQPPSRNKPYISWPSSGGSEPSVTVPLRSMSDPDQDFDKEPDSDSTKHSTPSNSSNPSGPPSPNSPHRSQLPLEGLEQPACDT
An outline of the steps: as §1

The target in the next assay is T3, CDK1/E1 (Homo sapiens, UniProt P06493).
T3 construct: AssayQuant Technologies, Inc. (ran the panel)
T3 sequence (P06493 whole entry, species assumed): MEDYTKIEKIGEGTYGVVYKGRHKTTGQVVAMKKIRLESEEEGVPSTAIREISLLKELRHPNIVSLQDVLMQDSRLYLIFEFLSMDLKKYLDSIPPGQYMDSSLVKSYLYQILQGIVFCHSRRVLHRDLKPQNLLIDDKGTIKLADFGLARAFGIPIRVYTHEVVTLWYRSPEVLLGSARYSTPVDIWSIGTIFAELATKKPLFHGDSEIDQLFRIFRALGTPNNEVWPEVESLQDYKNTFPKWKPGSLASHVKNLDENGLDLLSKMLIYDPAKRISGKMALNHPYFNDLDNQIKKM
T3 sequence (P24864 whole entry partner, species assumed): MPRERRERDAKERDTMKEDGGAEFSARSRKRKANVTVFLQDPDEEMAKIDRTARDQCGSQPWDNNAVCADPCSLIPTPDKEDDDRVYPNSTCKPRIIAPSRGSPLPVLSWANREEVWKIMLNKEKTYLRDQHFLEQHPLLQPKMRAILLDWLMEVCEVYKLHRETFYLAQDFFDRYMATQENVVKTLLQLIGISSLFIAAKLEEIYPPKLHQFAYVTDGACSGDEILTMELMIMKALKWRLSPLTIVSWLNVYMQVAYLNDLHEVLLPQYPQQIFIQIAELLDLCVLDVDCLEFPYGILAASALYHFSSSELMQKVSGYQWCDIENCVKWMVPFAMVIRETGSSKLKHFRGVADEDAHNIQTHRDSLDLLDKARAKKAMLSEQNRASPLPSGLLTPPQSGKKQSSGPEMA
The procedure, abridged: as §1

The next assay deals with T4, CDK9/T1 (Homo sapiens, UniProt P50750).
T4 construct: AssayQuant Technologies, Inc. (ran the panel)
T4 sequence (P50750 whole entry, species assumed): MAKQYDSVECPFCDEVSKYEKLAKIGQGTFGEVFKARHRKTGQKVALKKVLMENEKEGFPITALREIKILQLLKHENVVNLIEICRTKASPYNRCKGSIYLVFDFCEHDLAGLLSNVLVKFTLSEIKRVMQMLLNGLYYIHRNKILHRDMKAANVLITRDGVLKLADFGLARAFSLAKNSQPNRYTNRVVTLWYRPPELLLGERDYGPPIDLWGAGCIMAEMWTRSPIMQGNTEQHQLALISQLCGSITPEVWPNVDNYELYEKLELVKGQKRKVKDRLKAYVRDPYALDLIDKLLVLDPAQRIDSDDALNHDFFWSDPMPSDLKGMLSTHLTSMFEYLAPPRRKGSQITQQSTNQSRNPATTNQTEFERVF
T4 sequence (O60563 whole entry partner, species assumed): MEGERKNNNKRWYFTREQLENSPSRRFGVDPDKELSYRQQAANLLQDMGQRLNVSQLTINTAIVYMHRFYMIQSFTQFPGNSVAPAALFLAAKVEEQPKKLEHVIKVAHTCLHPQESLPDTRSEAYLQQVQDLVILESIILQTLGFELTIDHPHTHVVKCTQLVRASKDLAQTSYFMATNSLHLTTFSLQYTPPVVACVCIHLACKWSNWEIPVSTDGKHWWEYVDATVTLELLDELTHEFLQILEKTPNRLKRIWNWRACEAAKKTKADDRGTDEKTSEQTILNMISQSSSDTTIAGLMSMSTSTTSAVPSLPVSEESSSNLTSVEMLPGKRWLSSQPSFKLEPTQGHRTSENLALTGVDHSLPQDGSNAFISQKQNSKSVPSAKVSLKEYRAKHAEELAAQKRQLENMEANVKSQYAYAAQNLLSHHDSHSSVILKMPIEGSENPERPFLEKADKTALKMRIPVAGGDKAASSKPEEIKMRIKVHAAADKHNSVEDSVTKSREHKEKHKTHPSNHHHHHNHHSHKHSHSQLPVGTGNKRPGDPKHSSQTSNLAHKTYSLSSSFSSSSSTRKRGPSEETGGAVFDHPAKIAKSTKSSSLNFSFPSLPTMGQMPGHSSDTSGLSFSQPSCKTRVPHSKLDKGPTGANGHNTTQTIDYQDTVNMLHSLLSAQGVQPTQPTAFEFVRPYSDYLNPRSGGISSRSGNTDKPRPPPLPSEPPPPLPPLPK
An outline of the steps: as §1

In the next assay the target is T5, DYRK3 (Homo sapiens, UniProt O43781).
T5 construct: AssayQuant Technologies, Inc. (service laboratory)
T5 sequence (O43781 1-588): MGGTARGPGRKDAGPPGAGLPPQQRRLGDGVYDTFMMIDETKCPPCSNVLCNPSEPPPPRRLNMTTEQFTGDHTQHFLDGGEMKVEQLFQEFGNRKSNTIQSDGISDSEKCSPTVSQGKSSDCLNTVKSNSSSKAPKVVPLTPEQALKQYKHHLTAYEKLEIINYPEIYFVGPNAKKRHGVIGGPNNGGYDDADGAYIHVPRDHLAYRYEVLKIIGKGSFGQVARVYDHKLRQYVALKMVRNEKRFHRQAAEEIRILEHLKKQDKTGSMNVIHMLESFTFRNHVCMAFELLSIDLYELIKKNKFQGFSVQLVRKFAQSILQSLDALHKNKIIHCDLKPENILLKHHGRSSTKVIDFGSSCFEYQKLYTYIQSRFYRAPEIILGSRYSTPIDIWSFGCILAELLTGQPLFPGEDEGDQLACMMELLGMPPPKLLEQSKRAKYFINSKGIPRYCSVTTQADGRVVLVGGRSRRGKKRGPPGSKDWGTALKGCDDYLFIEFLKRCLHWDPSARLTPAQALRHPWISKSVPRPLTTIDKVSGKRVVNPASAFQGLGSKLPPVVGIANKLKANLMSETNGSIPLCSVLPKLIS
An outline of the steps:
as §1

The target in a further assay is T6, EIF2AK1/HRI (Homo sapiens, UniProt Q9BQI3).
T6 construct: AssayQuant Technologies, Inc. (service laboratory)
An outline of the steps:
as §1

The next assay concerns the target T7, NEK2 (Homo sapiens, UniProt P51955).
T7 construct: AssayQuant Technologies, Inc. (assay service)
T7 sequence (P51955 1-445): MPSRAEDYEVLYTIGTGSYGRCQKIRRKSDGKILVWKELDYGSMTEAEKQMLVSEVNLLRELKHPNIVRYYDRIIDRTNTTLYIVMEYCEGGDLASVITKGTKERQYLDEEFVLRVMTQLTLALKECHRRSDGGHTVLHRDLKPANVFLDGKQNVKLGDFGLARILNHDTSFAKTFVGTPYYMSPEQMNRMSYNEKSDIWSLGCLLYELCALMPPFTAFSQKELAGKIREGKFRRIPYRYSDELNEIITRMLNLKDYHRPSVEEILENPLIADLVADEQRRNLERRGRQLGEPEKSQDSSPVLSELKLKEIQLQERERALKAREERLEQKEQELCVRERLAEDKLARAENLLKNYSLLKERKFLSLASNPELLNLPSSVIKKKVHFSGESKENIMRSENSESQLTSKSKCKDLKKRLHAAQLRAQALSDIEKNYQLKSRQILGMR
The procedure, abridged:
as §1

Another assay deals with ROCK2 (Homo sapiens, UniProt O75116). An outline of the steps:
as §1

The target in the next assay is T8, TSSK2 (Homo sapiens, UniProt Q96PF2).
T8 construct: AssayQuant Technologies, Inc. (contract laboratory that ran the panel)
T8 sequence (Q96PF2 1-358): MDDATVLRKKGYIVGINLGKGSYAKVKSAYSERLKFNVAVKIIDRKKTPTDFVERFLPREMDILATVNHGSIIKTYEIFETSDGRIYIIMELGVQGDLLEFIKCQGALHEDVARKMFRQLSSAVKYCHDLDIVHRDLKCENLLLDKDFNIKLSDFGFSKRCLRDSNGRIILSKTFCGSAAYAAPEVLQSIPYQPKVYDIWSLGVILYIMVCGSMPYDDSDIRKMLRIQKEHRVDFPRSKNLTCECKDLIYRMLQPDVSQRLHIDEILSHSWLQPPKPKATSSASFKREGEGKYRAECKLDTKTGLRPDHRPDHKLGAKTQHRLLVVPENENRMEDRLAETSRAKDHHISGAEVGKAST
The procedure, abridged:
as §1

Structures are written as SMILES.

ROCK2, sequence (O75116 whole entry, species assumed): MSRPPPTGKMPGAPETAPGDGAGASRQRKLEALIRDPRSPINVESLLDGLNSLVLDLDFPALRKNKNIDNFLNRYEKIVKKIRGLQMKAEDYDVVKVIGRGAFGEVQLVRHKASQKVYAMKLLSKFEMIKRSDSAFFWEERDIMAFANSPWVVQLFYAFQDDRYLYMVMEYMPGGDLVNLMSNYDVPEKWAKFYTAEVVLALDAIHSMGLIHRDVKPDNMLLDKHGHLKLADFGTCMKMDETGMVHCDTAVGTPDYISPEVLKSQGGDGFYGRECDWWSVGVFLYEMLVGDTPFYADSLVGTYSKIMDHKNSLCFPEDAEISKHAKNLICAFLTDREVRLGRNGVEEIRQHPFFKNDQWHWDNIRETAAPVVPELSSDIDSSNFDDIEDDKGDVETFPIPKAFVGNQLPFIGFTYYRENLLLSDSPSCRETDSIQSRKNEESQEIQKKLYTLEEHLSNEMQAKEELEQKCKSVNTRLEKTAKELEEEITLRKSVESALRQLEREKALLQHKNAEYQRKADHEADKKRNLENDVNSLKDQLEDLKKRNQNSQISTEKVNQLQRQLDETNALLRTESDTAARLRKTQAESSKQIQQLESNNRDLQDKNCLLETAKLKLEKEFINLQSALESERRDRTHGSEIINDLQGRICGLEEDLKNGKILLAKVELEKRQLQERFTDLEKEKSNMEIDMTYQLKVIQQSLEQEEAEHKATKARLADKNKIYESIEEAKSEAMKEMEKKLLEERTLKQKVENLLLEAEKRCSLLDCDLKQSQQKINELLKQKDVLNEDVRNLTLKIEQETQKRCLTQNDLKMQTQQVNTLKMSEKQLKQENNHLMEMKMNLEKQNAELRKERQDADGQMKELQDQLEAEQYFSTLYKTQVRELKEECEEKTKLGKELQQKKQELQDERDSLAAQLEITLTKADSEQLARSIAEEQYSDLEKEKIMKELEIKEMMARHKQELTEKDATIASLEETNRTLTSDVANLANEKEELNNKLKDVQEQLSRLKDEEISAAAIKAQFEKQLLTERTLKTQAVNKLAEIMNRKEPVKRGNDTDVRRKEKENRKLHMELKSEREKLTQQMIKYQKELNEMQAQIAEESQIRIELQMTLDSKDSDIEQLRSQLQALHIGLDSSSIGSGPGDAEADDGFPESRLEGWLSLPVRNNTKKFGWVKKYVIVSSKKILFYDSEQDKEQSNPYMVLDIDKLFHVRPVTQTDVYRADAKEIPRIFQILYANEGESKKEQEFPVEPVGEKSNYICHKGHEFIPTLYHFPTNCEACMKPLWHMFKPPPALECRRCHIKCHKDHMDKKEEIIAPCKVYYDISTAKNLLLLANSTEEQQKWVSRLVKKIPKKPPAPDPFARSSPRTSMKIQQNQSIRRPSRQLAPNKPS

For `C=CC(=O)N1CCC[C@@H](c2c(F)cc(C(N)=O)c3[nH]c4c(c23)CCC4)C1` [Compound 10-2, (S)-8-(1-acryloylpiperidin-3-yl)-7-fluoro-1,2,3,4-tetrahydrocyclo-penta[b]indole-5-carboxamide], the inhibition at 1 µM was 1.8% against BRSK2; -10.2% against CDC42BPB/MRCKB; -10.6% against CDK1/E1; -26.7% at CDK9/T1; -3.3% against DYRK3; -89.5% against EIF2AK1/HRI. Besides, the inhibition at 1 µM against NEK2 came to 10.6%; at ROCK2 it was 21.2%; at TSSK2, 25.3%.
In the case of `C=CC(=O)N1CCCC(c2c(F)cc(C(N)=O)c3[nH]c4c(c23)CCCCC4)C1` (single isomer, unassigned) [Compound 5-6], the inhibition at 1 µM was -31.2% against BRSK2; -31% on CDC42BPB/MRCKB; -3.6% against CDK1/E1; -11% at CDK9/T1; 2.8% against DYRK3; -6.1% on EIF2AK1/HRI. For the same molecule, the values for the inhibition at 1 µM against NEK2, at ROCK2 and against TSSK2 were -26.5%, -28.3% and 10.2%, respectively.
For the molecule `C=CC(=O)N1CCC[C@@H](c2c(F)cc(C(N)=O)c3[nH]c4c(c23)CC2(CC4)CC2)C1` [Compound 6-2, (S)-5-(1-acryloylpiperidin-3-yl)-6-fluoro-1,2,4,9-tetrahydrospiro[carbazole-3,1′-cyclopropane]-8-carboxamide], the inhibition at 1 µM was -5.7% at BRSK2; -12.6% against CDC42BPB/MRCKB; -7% against CDK1/E1; -9.9% against CDK9/T1; -4.9% against DYRK3; -34.9% against EIF2AK1/HRI. For the same molecule, the inhibition at 1 µM at NEK2 is -1.4%; on ROCK2, 0.8%; at TSSK2 it was 22.9%.

As a reminder, the inhibition is the change of the read-out against control, counted positive when it falls.
